Experimental data from PMC8618441, “From Natural Xanthones to Synthetic C-1 Aminated 3,4-Dioxygenated Xanthones as Optimized Antifouling Agents” (Marine Drugs, 2021).
Values after ≈ are worked out from the molar mass of the structure shown. Like-named read-outs stand apart in the source and are kept apart here.

Assays:
[1] = test system: Mytilus galloprovincialis plantigrade larvae; assay: Mytilus galloprovincialis larvae anti-settlement bioassay; assay type: in vivo; settings: for settlement of mussel larvae: at 50 µM; for anti-settlement response versus negative control: screening at 50 μM, Dunnett test p < 0.05
Method: (§1) For the bioassays, M. galloprovincialis juveniles were collected in intertidal mussel beds during low tides in Memória beach, Matosinhos, Portugal (41°13′59″ N; 8°43′28″ W). Mussel plantigrade larvae (0.5–2 mm) were sorted in a binocular magnifier (Olympus SZX2-ILLT, Tokyo, Japan) and those presenting foot exploring behavior for settlement were selected to the screening bioassays at 50 µM performed in 24-well microplates for 15 h, in the dark at 18 ± 1 °C, according to Almeida et al.. Four well replicates per condition and five competent larvae per well were included. Negative and positive controls were included, namely DMSO (0.1%) and CuSO4 (5 µM) as an efficient antifouling agent. Stock solutions in DMSO (50 mM) were used to prepare test media (50 µM) in filtered seawater (0.1% DMSO). After the exposure period, the anti-settlement bioactivity was determined by the observation of efficiently attached plantigrade larvae considering the existence/absence of produced byssal threads for each test condition.
(§2) Data from the anti-settlement screening were analyzed using a one-way analysis of variance (ANOVA), followed by a Dunnett test against the negative control (p < 0.05). […] Therapeutic ratios (LC50/EC50) were used to evaluate the effectiveness versus toxicity of bioactive compounds. […] The mixed model ANOVA was performed on log10(x + 1)-transformed values from 4 biological replicates, employing the software IBM SPSS Statistics (version 21, SPSS Inc., Chicago, IL, USA).

[2] = Toxicity (LC50, therapeutic ratio) toward mussel plantigrade larvae; assay type: in vivo; settings: Mytilus galloprovincialis, in vivo, median lethal dose, mussel plantigrades
Method: as §1, §2

[3] = test system: Mytilus galloprovincialis plantigrade larvae; assay: as above; assay type: in vivo
Method: as §1, §2

Artemia salina nauplii [4] = assay: Brine shrimp (Artemia salina) lethality test, ecotoxicity; assay type: in vivo; settings: 48 h; for mortality of Artemia salina nauplii: at 50 µM; for toxicity to A. salina: lowest concentration tested, 25 μM
Method: Ecotoxicity of the most promising xanthones to non-target species was assessed using the brine shrimp (Artemia salina) lethality test standard protocol. Newly hatched nauplii I larvae were used for the exposure to the most promising antifouling compounds at 50 and 25 µM. The bioassay was performed in 96-well microplates with eight replicates per condition and 15–20 nauplii per well, including a positive (K2Cr2O7 at 13.6 µM) and negative control (0.1% DMSO). The percentage of nauplii mortality for each condition was determined at the end of the exposure period (48 h).

Escherichia coli = test system: Escherichia coli; set-up: method as in PMID 23172582; settings: in words; cited from earlier work
[5] = test system: brine shrimp (Artemia salina); set-up: method as in PMID 23172582; settings: in words; cited from earlier work
[6] = test system: Roseobacter litoralis CECT 5395; assay: Biofilm-forming marine bacteria growth bioassay; assay type: cell-based; settings: for inhibition at 12.5 µM: Roseobacter litoralis, read-out: growth inhibition of R. litoralis
Method: The experimental procedure was performed as previously reported by Almeida et al.. […] Bacterial growth inhibition in the presence of the compounds was determined in quadruplicate at 600 nm using a microplate reader (Biotek Synergy HT, Winooski, VT, USA). Negative and positive controls used were a solution of marine broth with 0.1% DMSO, and a stabilized solution of marine broth with penicillin-streptomycin-neomycin, respectively.

[7] = test system: Balanus amphitrite larvae; settings: cited from earlier work; for EC50, larval settlement of Balanus amphitrite / toxicity effects on the barnacle larvae: in vivo
[8] = test system: Mytilus galloprovincialis plantigrade larvae; settings: cited from earlier work
[9] = test system: Mytilus galloprovincialis plantigrade larvae; settings: cited from earlier work; remark: listed apart in the source
Artemia salina nauplii [10] = settings: cited from earlier work
Staphylococcus aureus = test system: Staphylococcus aureus; set-up: method as in PMID 23172582; settings: in words; cited from earlier work
[11] = test system: Colletotrichum lagenarium; set-up: method as in PMID 23172582; settings: in words; cited from earlier work
[12] = Mytilus galloprovincialis, 15 h, concentration that inhibited 50% of larval settlement of mussel plantigrades, 15 h exposure, read-out: EC50
[13] = Mytilus galloprovincialis, 15 h, concentration that inhibited 50% of larval settlement of mussel plantigrades, 15 h exposure, read-out: EC50 (μg.mL^−1)
[14] = other: larvae immersed in test media in filtered seawater
[15] = Mytilus galloprovincialis, 15 h
[16] = Mytilus galloprovincialis, 15 h, read-out: EC50 (μg.mL^−1)
[17] = larval settlement of mussel plantigrades

COc1ccc2c(=O)c3c(CBr)cc(OC)c(OC)c3oc2c1 [Compound 5, 1-(bromomethyl)-3,4,6-trimethoxy-9H-xanthen-9-one]
settlement of mussel larvae ([1]; 15 h): 45%

COc1cc(CO)c2c(=O)c3ccccc3oc2c1OC [Compound 8, 1-(hydroxymethyl)-3,4-dimethoxy-9H-xanthen-9-one]
EC50 [1, 12]: 21.8 µM
EC50 [1, 13]: 6.25 µg/mL
settlement of mussel larvae ([1]; 15 h): 35%
anti-settlement response versus negative control [1]: highly significant anti-settlement responses
LC50 at 15 h [2, 14]: > 100 µM
toxicity to the macrofouling species (mussel larvae) ([3]; in vivo): low toxicity
mortality of Artemia salina nauplii (Artemia salina nauplii [4]): < 10%

COC(=O)c1cc(OC)c2c(=O)c3c(O)cc(C)cc3oc2c1 [yicathin B]
antimicrobial activity against Escherichia coli (Escherichia coli): active
brine shrimp (Artemia salina) toxicity [5]: weak

COc1cc(CNCCN2CCOCC2)c2c(=O)c3ccccc3oc2c1OC [Compound 16, 3,4-dimethoxy-1-(((2-morpholinoethyl)amino)methyl)-9H-xanthen-9-one]
EC50 [1, 12]: 17.5 µM
EC50 [1, 13]: 6.98 µg/mL
settlement of mussel larvae ([1]; 15 h): 0%
anti-settlement response versus negative control [1]: highly significant anti-settlement responses
LC50 at 15 h [2, 14]: > 100 µM
toxicity to the macrofouling species (mussel larvae) ([3]; in vivo): low toxicity
antibacterial bioactivity in concentration–response study ([6]; R. litoralis, concentrations between 2 and 32 µM (Figure S1)): not confirmed
inhibition at 12.5 µM ([6]; CECT5395, screening at 12.5 µM, 24 h): > 30%
mortality of Artemia salina nauplii (Artemia salina nauplii [4]): < 10%

COc1ccc2c(=O)c3c(CCl)cc(OC)c(OC)c3oc2c1 [Compound 4, 1-(chloromethyl)-3,4,6-trimethoxy-9H-xanthen-9-one]
EC50 [1, 12]: 16.1 µM
EC50 [1, 13]: 5.41 µg/mL
settlement of mussel larvae ([1]; 15 h): 20%
anti-settlement response versus negative control [1]: highly significant anti-settlement responses
LC50 at 15 h [2, 14]: > 100 µM
toxicity to the macrofouling species (mussel larvae) ([3]; in vivo): low toxicity
mortality of Artemia salina nauplii (Artemia salina nauplii [4]): < 10%

COc1cc(C)c2c(=O)c3ccccc3oc2c1OC [Compound 1, 3,4-dimethoxy-1-methyl-9H-xanthen-9-one]
EC50 [1, 15]: 11.8 µM
EC50 [1, 16]: 3.19 µg/mL
anti-settlement response versus negative control [1]: highly significant anti-settlement responses
LC50 at 15 h [2]: > 100 µM
toxicity to the macrofouling species (mussel larvae) ([3]; in words): low toxicity
toxicity to A. salina (Artemia salina nauplii [4]): significant toxicity

COc1cc2c(c3oc4cccc(O)c4c(=O)c13)[C@@H]1C=CO[C@@H]1O2 [sterigmatocystin]
EC50, larval settlement of Balanus amphitrite [7]: < 0.125 µg/mL
toxicity effects on the barnacle larvae [7]: induced paralyzing effects

COc1cc(CN2CCc3c(N)cccc3C2)c2c(=O)c3ccccc3oc2c1OC [Compound 21, 1-((5-amino-3,4-dihydroisoquinolin-2(1H)-yl)methyl)-3,4-dimethoxy-9H-xanthen-9-one]
EC50 [1, 12]: 7.28 µM
EC50 [1, 13]: 3.03 µg/mL
settlement of mussel larvae ([1]; 15 h): 20%
anti-settlement response versus negative control [1]: highly significant anti-settlement responses
LC50 at 15 h [2, 14]: > 100 µM
toxicity to the macrofouling species (mussel larvae) ([3]; in vivo): low toxicity
mortality of Artemia salina nauplii (Artemia salina nauplii [4]): < 10%

O=c1c2ccccc2oc2c(O)c(O)ccc12 [3,4-Dihydroxyxanthone]
activity toward the settlement of Mytilus galloprovincialis larvae ([8]; in words): exhibited in vivo activity
toxicity to the macrofouling species (mussel larvae) ([9]; in words): low toxicity
ecotoxicity toward A. salina, mortality (Artemia salina nauplii [10]): < 10%

COc1ccc2c(=O)c3c(C)c(Cl)c(OC)c(OC)c3oc2c1 [Compound 3, 2-chloro-3,4,6-trimethoxy-1-methyl-9H-xanthen-9-one]
anti-settlement response versus negative control [1]: nullified the significant anti-settlement effect

COc1cc(CN2CCCCC2)c2c(=O)c3ccccc3oc2c1OC [Compound 23, 3,4-dimethoxy-1-(piperidin-1-ylmethyl)-9H-xanthen-9-one]
EC50 [1, 12]: ~4 µM
EC50 [1, 13]: 1.26 µg/mL
settlement of mussel larvae ([1]; 15 h): 20%
EC50 ([1]; concentration that inhibited 50% of larval settlement of mussel plantigrades, 15 h exposure, read-out: EC50): 3.57 µM
anti-settlement response versus negative control [1]: highly significant anti-settlement responses
LC50 at 15 h [2, 14]: > 100 µM
toxicity to the macrofouling species (mussel larvae) ([3]; in vivo): low toxicity
mortality of Artemia salina nauplii (Artemia salina nauplii [4]): < 10%

COc1cc(CN2CCN(CCO)CC2)c2c(=O)c3ccccc3oc2c1OC [Compound 19, 1-((4-(2-hydroxyethyl)piperazin-1-yl)methyl)-3,4-dimethoxy-9H-xanthen-9-one]
EC50 [1, 12]: 53.9 µM
EC50 [1, 13]: 21.5 µg/mL
settlement of mussel larvae ([1]; 15 h): 10%
anti-settlement response versus negative control [1]: highly significant anti-settlement responses
LC50 at 15 h [2, 14]: > 100 µM
toxicity to the macrofouling species (mussel larvae) ([3]; in vivo): low toxicity
mortality of Artemia salina nauplii (Artemia salina nauplii [4]): < 10%

COc1cc2c(c3c(=O)c4c(OC)ccc(O)c4oc13)[C@@H]1C=CO[C@@H]1O2 [methoxysterigmatocystin]
EC50, larval settlement of Balanus amphitrite [7]: < 0.125 µg/mL
toxicity effects on the barnacle larvae [7]: induced paralyzing effects

COc1cc(C(Br)Br)c2c(=O)c3ccccc3oc2c1OC [Compound 6, 1-(dibromomethyl)-3,4-dimethoxy-9H-xanthen-9-one]
EC50 [1, 15]: 22.8 µM
EC50 [1, 16]: 9.75 µg/mL
anti-settlement response versus negative control [1]: highly significant anti-settlement responses
LC50 at 15 h [2]: > 100 µM
toxicity to the macrofouling species (mussel larvae) ([3]; in words): low toxicity
inhibition at 12.5 µM ([6]; CECT5395, 24 h): > 30%
mortality of Artemia salina nauplii (Artemia salina nauplii [4]): < 10%

COc1ccc2c(=O)c3c(C)cc(OC)c(OC)c3oc2c1 [Compound 2, 3,4,6-trimethoxy-1-methyl-9H-xanthen-9-one]
EC50 [1, 15]: 27.2 µM
EC50 [1, 16]: 8.15 µg/mL
anti-settlement response versus negative control [1]: highly significant anti-settlement responses
LC50 at 15 h [2]: > 100 µM
toxicity to the macrofouling species (mussel larvae) ([3]; in words): low toxicity
toxicity to A. salina (Artemia salina nauplii [4]): significant toxicity

COc1cc(C(=O)O)cc2oc3cc(C)cc(O)c3c(=O)c12 [yicathin C]
antimicrobial activity against Escherichia coli (Escherichia coli): could inhibit
antimicrobial activity against Staphylococcus aureus (Staphylococcus aureus): could inhibit
antimicrobial activity against Colletotrichum lagenarium [11]: could inhibit
brine shrimp (Artemia salina) toxicity [5]: weak

N#Cc1c(-c2ccc(Cl)cc2)[nH]c(C(F)(F)F)c1Br [ECONEA]
EC50 [8, 17]: 4.01 µM
EC50 (μg.mL^−1) [8, 17]: 1.40 µg/mL (≈ 4.01 µM)
LC50 ([9]; median lethal dose, mussel plantigrades): 108 µM
mortality of Artemia salina (Artemia salina nauplii [10]; at the same concentration range (25-50 µM)): 100%

COC(=O)c1cc(O)cc2oc3c(Cl)c(C)c(Cl)c(O)c3c(=O)c12 [penicilixanthone]
EC50, larval settlement of B. amphitrite [7]: 17.1 µg/mL
